Read-outs that look alike come from different tables or passages of the source.
Key:
aged rhesus monkeys = experiment: Spatial delayed response task (working memory) in aged rhesus monkeys; type: in vivo, rhesus monkeys (Macaca mulatta); conditions: for delayed response performance: 1 h prior to testing
Excerpt: Performance on this task is reliant upon the integrity of the dorsolateral prefrontal cortex (Goldman-Rakic, 1987) and is consistently impaired in aged rhesus monkey (Bartus, et al., 1978; Rapp and Amaral, 1989).
The present study used 13 aged female rhesus monkeys (Macaca mulatta) ranging in age from 18 to 35 years at the time of testing. Actual birthdates were not available for several of the wild-caught animals and ages were estimated based on health records, teeth, and known history; several had been in the Yale University colony for more than 15 years. Monkeys were individually housed and maintained on a diet of Purina monkey chow (St. Louis, Mo.) supplemented with fruit.
Animals were tested at the same time of day immediately prior to feeding. Highly palatable food rewards (e.g., peanuts, raisins, or chocolate chips) were utilized during testing to minimize the need for dietary regulation. Animals were tested twice a week with 3-4 days separating each test session (e.g., Monday and Thursday). Cognitive testing of monkeys occurred in a Wisconsin General Testing Apparatus (WGTA) situated in a sound-attenuating room. Background masking noise (60 dB, wideband) was used to minimize auditory distractions.
The monkeys were trained on the spatial delayed response task as described previously (Arnsten, A. F., et al., J. Neurosci. (1988) δ: 4287-4298). For the delayed response task, the animal watched as the experimenter baited one of several food-wells with a food reward. The number of food-wells varied from two to four wells, depending on the monkey's performance level and experience with the task. Care was taken by the experimenter to ensure that the animal attended the baiting procedure. After baiting, food-wells were covered with identical plaques, and an opaque screen was lowered between the animal and the food-wells for a specified delay. At the end of the delay, the screen was raised and the animal was allowed to choose. Reward was quasi-randomly distributed between the wells. Five delay lengths (referred to as delays A through E) were quasi-randomly distributed over 30 trials. The shortest of these delays was ˜2 s (the “0” s, A delay). The remaining delays were titrated for individual monkeys such that each monkey maintained a baseline performance of 60-73% correct. For example, the delays for one animal might be A=0, B=5, C=10, D=15, and E=20 s.
Data were analyzed by comparing performance following treatment using a one-way repeated-measures ANOVA. […] Values were represented as means±SEM. Linear relationships between treatment response at the optimal dose of CHEL and age of the monkey (years) were analyzed in 10 monkeys with known birthdates using Pearson's test. In all cases, an α level of 0.05 was considered statistically significant.
All animals received all treatments conditions, with at least 7 days between treatments. The order of treatment administration was quasi-randomized.

[1] = systemic administration; cited from earlier work
[2] = tested on: rat medial prefrontal cortex; conditions: systemic administration and infusions directly to the rat medial prefrontal cortex via implanted cannula; cited from earlier work
aged rats = conditions: for change in percent-correct from mean 2-day baseline: 45 min prior to testing, N=5 aged rats

Which “performance of 3 oldest monkeys better than 3 youngest monkeys” value (aged rhesus monkeys; 0.3 μg/kg oral) does the source give for `COc1ccc2c(c[n+](C)c3c4cc5c(cc4ccc23)OCO5)c1OC` [CHEL, Chelerythrine] here?
The value was greater than 20%.

And the delayed response performance (aged rhesus monkeys; 0.3 μg/kg oral, N=13 aged monkeys, p=0.013 vs vehicle)?
Its delayed response performance is 74.5±2.6 % correct.

What about the “spatial working memory performance 4 hours after oral administration” value (aged rhesus monkeys; 0.3 ug/kg oral, 4 hrs after administration, p=0.012 compared to vehicle (FIG. 5)) of the same compound?
Its value is “improved performance”.

What about the “performance of the 3 oldest monkeys” value (aged rhesus monkeys; 0.3 μg/kg oral, 3 oldest monkeys, mean age 32.3 years) of the same compound?
Its value is 85.6±4.4 % correct.

And the “performance of the 3 youngest aged monkeys” value (aged rhesus monkeys; 0.3 μg/kg oral, 3 youngest aged monkeys, mean age 20.7 years)?
The value was 65.0±4.8 % correct.

What about the delayed response performance (aged rhesus monkeys; 3.0 μg/kg oral, N=13, p=0.151 vs vehicle) of the same compound?
The delayed response performance was 71.5±1.9 % correct.

And the delayed response performance (aged rhesus monkeys; 30.0 μg/kg oral, N=13, p=0.406 vs vehicle)?
Its delayed response performance is 66.1±1.8%.

What about the “spatial working memory performance at best dose” value (aged rhesus monkeys; individual best dose for all monkeys, oral, 4 hours, p=0.001 (FIG. 5)) of the same compound?
The value was “reliably improved performance”.

And the “serious deficits at high doses” value (aged rhesus monkeys; oral, even at high doses (150 ug/kg), 4 hours (FIG. 5))?
Its value is “no serious deficits were found”.

What about the “working memory impairments following administration of cirazoline” value [1] of the same compound?
Its value is “reverse working memory impairments”.

What about the “stress induced working memory impairments” value [2] of the same compound?
The value was “capable of reversing stress induced working memory impairments”.

And the “change in percent-correct from mean 2-day baseline” value (aged rats; 0.3 mg/kg subcutaneous, p=0.691 vs vehicle)?
The value was 8.6±5.4 % improvement.

And the “change in percent-correct from mean 2-day baseline” value (aged rats; 1.0 mg/kg subcutaneous, p=0.047 vs vehicle)?
Its value is 26±6.4 % improvement.

What about the “performance times (non-specific motor effects)” value (aged rats; 0.3 or 1.0 mg/kg subcutaneous, data not shown) of the same compound?
Its value is “performance times did not differ as a result of treatment”.
